# Data published in ChEMBL document CHEMBL4765397, “Design, synthesis and bioevaluation of novel substituted triazines as potential dual PI3K/mTOR inhibitors” (Eur J Med Chem, 2020).
# Active and inactive are the calls of the source. The rule behind the calls is not given here.
# Legend:
# [1] = molecular target: Serine/threonine-protein kinase mTOR (Homo sapiens, UniProt P42345); assay: Inhibition of mTOR (unknown origin) using ULight-4E-BP1 as substrate measured after 45 mins in presence of ATP by LANCE Ultra assay
# [2] = test system: HeLa; assay: Antiproliferative activity against human HeLa cells assessed as reduction in cell viability after 48 hrs by MTT assay; type: functional, cell-based
# [3] = test system: CNE-2; assay: Antiproliferative activity against human CNE2 cells assessed as reduction in cell viability after 48 hrs by MTT assay; type: functional, cell-based; conditions: CNE-2, 48 h
# [4] = test system: HCT-116; assay: Antiproliferative activity against human HCT116 cells assessed as reduction in cell viability after 48 hrs by MTT assay; type: functional, cell-based; conditions: HCT-116, 48 h
# [5] = test system: HCT-116; assay: Inhibition of PI3K/mTOR signaling in human HCT116 cells assessed as reduction in AKT phosphorylation at 10 uM measured by Western blot analysis; type: cell-based
# [6] = test system: HCT-116; assay: Inhibition of PI3K/mTOR signaling in human HCT116 cells assessed as reduction in […] phosphorylation at 10 uM measured by Western blot analysis; type: cell-based
# [7] = Metabolic stability in artificial gastrointestinal fluids
# [8] = test system: MDA-MB-231; assay: Antiproliferative activity against human MDA-MB-231 cells assessed as reduction in cell viability after 48 hrs by MTT assay; type: functional, cell-based; conditions: MDA-MB-231, 48 h
# [9] = test system: MCF7; assay: Antiproliferative activity against human MCF-7 cells assessed as reduction in cell viability after 48 hrs by MTT assay; type: functional, cell-based; conditions: MCF7, 48 h
# [10] = molecular target: T1, Phosphatidylinositol 4,5-bisphosphate 3-kinase catalytic subunit delta isoform (Homo sapiens, UniProt O00329); assay: Inhibition of PI3Kdelta (unknown origin) using PIP2 as substrate measured after 1 hr in presence of ATP by ADP-Glo reagent based assay
# T1 sequence (O00329 whole entry): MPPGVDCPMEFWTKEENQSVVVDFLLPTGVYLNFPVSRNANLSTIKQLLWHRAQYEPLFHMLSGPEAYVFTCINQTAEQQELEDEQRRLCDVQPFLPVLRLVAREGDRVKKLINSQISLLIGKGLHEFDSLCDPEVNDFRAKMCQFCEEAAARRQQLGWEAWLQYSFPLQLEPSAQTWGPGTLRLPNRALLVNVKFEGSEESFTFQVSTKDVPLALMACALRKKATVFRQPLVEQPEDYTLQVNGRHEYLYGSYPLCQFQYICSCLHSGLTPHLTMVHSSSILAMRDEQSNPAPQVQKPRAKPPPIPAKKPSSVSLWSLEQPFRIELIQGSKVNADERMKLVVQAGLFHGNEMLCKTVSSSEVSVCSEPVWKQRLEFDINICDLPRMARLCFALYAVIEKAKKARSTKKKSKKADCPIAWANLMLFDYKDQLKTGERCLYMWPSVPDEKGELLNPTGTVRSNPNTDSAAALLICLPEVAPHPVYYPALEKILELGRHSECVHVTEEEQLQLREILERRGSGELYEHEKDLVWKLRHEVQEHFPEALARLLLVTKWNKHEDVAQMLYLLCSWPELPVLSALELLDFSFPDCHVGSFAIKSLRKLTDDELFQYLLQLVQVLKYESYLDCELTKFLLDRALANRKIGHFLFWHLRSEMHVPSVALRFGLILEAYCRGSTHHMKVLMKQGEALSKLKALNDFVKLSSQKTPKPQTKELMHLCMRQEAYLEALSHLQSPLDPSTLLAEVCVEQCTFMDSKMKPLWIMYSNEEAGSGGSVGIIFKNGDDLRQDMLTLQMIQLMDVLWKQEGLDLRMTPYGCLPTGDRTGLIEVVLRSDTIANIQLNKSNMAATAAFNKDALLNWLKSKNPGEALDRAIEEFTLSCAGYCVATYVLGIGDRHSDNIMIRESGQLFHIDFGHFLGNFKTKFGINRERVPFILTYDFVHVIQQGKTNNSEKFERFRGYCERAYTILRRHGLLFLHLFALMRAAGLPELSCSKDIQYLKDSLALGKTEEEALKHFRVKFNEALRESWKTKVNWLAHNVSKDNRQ
# [11] = Metabolic stability in rat liver microsomes assessed as compound remaining measured after 45 mins; type: ADME, Microsome; conditions: 0.75 h
# [12] = test system: HepG2; assay: Antiproliferative activity against human HepG2 cells assessed as reduction in cell viability after 48 hrs by MTT assay; type: functional, cell-based; conditions: HepG2, 48 h
compound,measurement,setting,value
NC(=O)C1CCCN(C(=O)c2ccc3nc(Nc4ccc(-c5nc(N6CCOCC6)nc(N6CCOCC6)n5)cc4)[nH]c3c2)C1 (centres undefined),IC50,[1],10.2 µM
NC(=O)C1(N)CCN(C(=O)c2ccc3nc(Nc4ccc(-c5nc(N6CCOCC6)nc(N6CCOCC6)n5)cc4)[nH]c3c2)CC1,IC50,[1],5.7 µM
O=C(c1ccc2nc(Nc3ccc(-c4nc(N5CCOCC5)nc(N5CCOCC5)n4)cc3)[nH]c2c1)N1CCOCC1,IC50,[2],2.4 µM
same,IC50,[3],6.9 µM
same,IC50,[4],0.3 µM
same,inhibition,[5],Active
same,inhibition,[6],Active
same,Stability,[7],Stable
same,IC50,[8],4.8 µM
same,IC50,[1],12.9 µM
same,IC50,[9],1.2 µM
same,IC50,[10],0.044 µM
same,Stabilty,[11],Unstable
same,IC50,[12],1.3 µM
C[C@H](NC(=O)c1ccc2nc(Nc3ccc(-c4nc(N5CCOCC5)nc(N5CCOCC5)n4)cc3)[nH]c2c1)C(N)=O,IC50,[2],1.3 µM
same,IC50,[3],12.3 µM
same,IC50,[4],0.7 µM
same,IC50,[8],1.9 µM
same,IC50,[1],5.8 µM
same,IC50,[9],0.4 µM
same,IC50,[10],0.005 µM
same,IC50,[12],7.9 µM
CN1CCN(C(=O)c2ccc3nc(Nc4ccc(-c5nc(N6CCOCC6)nc(N6CCOCC6)n5)cc4)[nH]c3c2)CC1,IC50,[1],13.1 µM
same,IC50,[10],0.013 µM
CS(=O)(=O)N1CCN(C(=O)c2ccc3nc(Nc4ccc(-c5nc(N6CCOCC6)nc(N6CCOCC6)n5)cc4)[nH]c3c2)CC1,IC50,[1],11.9 µM
NC(=O)C1CCN(C(=O)c2ccc3nc(Nc4ccc(-c5nc(N6CCOCC6)nc(N6CCOCC6)n5)cc4)[nH]c3c2)CC1,IC50,[1],15.4 µM
same,IC50,[10],0.0023 µM
NC(=O)[C@@H]1CCCN1C(=O)c1ccc2nc(Nc3ccc(-c4nc(N5CCOCC5)nc(N5CCOCC5)n4)cc3)[nH]c2c1,Stability,[7],Stable
same,IC50,[1],11.8 µM
same,Stabilty,[11],Stable
NC(=O)C1CCCCN1C(=O)c1ccc2nc(Nc3ccc(-c4nc(N5CCOCC5)nc(N5CCOCC5)n4)cc3)[nH]c2c1 (centres undefined),IC50,[1],8.5 µM
NC(=O)[C@H]1CCCN1C(=O)c1ccc2nc(Nc3ccc(-c4nc(N5CCOCC5)nc(N5CCOCC5)n4)cc3)[nH]c2c1,IC50,[2],7.7 µM
same,IC50,[3],7.3 µM
same,IC50,[4],0.9 µM
same,inhibition,[5],Active
same,inhibition,[6],Active
same,Stability,[7],Stable
same,IC50,[8],5.5 µM
same,IC50,[1],5.6 µM
same,IC50,[9],0.3 µM
same,IC50,[10],0.0051 µM
same,Stabilty,[11],Stable
same,IC50,[12],23 µM
CN(C)C1CCN(C(=O)c2ccc3nc(Nc4ccc(-c5nc(N6CCOCC6)nc(N6CCOCC6)n5)cc4)[nH]c3c2)CC1,IC50,[1],14.6 µM
